Measurements published in PMC12841663, “Antiprotozoal Potential of Cultivated Geranium macrorrhizum Against Giardia duodenalis, Trichomonas gallinae and Leishmania infantum” (International Journal of Molecular Sciences, 2026).
In brackets after ≈: the same amount, converted by molar mass.

Legend:
[1] = tested on: L. infantum promastigotes; experiment: Anti-Leishmania activity assay on promastigotes (MTT viability); assay type: cell-based; conditions: pure compounds
Procedure: (§1) Anti-Leishmania (AL) activity was assessed on L. infantum promastigotes (MCAN/ES/98/LLM-722), kindly provided by Dr. J.M. Requena from CBM-CSIC, as well as on L. infantum (M/CAN/ES/96/BCN150 zymodeme MON-1), strain isolated from a dog with active visceral leishmaniasis. L. infantum promastigotes (MCAN/ES/98/LLM-722) were cultured in RPMI medium supplemented with 15% FBS and 10 μg/mL of hemin (Acros Organics, Madrid, Spain), grown at 26 °C. Promastigotes in logarithmic growth were seeded in 96-well flat-bottom plates at a volume of 100 μL of culture per well and incubated for 48 h. Promastigotes for macrophage infection (M/CAN/ES/96/BCN150 zymodeme MON-1) were maintained at 26 °C in Schneider’s insect medium (Lonza, Basel, Switzerland) supplemented with 10% FBS and 100 U/mL penicillin and 100 μg/mL streptomycin (Lonza, Basel, Switzerland) (Pen-Strep). Promastigotes in the stationary phase of growth (5–6 days) were washed twice in phosphate-buffered saline at 2700× g for 10 min at 22 °C and employed for macrophage infection.
EOs and pure compounds were solved in DMSO (Sigma, Madrid, Spain) (<1% final concentration). […] Trophozoites/promastigotes viability was assessed using the modified MTT colorimetric assay, as described previously in the literature, with results further validated by microscopic examination. The plate was analyzed in a spectrophotometer at a wavelength of 570 nm. The percentage of antiparasitic activity was calculated as growth inhibition, using the following formula: % AT = 100 − [(Ap − Ab) ÷ (Ac − Ab)] × 100, where Ap is the absorbance of the tested product, Ab the absorbance of the blank and Ac the absorbance of the control wells (culture without treatment).
Pure compounds were tested using the same method, although at concentrations of 100, 75, 50, 25, 10, and 1 μg/mL. Metronidazole (Acros Organics, Madrid, Spain) served as a reference compound for anti-Giardia activity and Anti-Trichomonas activity and amphotericin B for anti-Leishmania activity.
(§2) Data was analyzed using STATGRAPHICS Centurion XIX (https://www.statgraphics.com) (Statgraphics Technologies, Inc., The Plains, VA, USA). The mammalian cells and trophozoites viability were tested with each compound in a dose–response experiment to calculate their relative potency (CC50 or IC50 value, respectively). IC50 (μg/mL) expresses the dose of EOs, extracts or pure compounds needed to produce 50% mortality of trophozoites, while CC50 (μg/mL) expresses the dose of compounds necessary to produce 50% mortality of Vero cells.

T. gallinae trophozoites = experiment: Anti-Trichomonas activity assay (MTT viability); assay type: cell-based; conditions: pure compounds
Procedure: The anti-Trichomonas (AT) activity assay utilized T. gallinae trophozoites from an isolate obtained from a wood pigeon by Dr. […] EOs and pure compounds were solved in DMSO (Sigma, Madrid, Spain) (<1% final concentration). […] Trophozoites/promastigotes viability was assessed using the modified MTT colorimetric assay, as described previously in the literature, with results further validated by microscopic examination. The plate was analyzed in a spectrophotometer at a wavelength of 570 nm. The percentage of antiparasitic activity was calculated as growth inhibition, using the following formula: % AT = 100 - [(Ap - Ab) ÷ (Ac - Ab)] × 100, where Ap is the absorbance of the tested product, Ab the absorbance of the blank and Ac the absorbance of the control wells (culture without treatment). […] Metronidazole (Acros Organics, Madrid, Spain) served as a reference compound for anti-Giardia activity and Anti-Trichomonas activity and amphotericin B for anti-Leishmania activity. Data was analyzed using STATGRAPHICS Centurion XIX ([…].com) (Statgraphics Technologies, Inc., The Plains, VA, USA). The mammalian cells and trophozoites viability were tested with each compound in a dose-response experiment to calculate their relative potency (CC50 or IC50 value, respectively).

[2] = Cytotoxicity of pure compounds on Vero cells (MTT); assay type: cell-based; conditions: African green monkey
Procedure: African green monkey kidney cells (Vero cells) were maintained in Dulbecco’s modified Eagle’s minimal essential medium (DMEM) (Thermo Fisher Scientific, Waltham, MA, USA) supplemented with 10% FBS and 1% Pen-Strep at 37 °C under a humidified atmosphere of 5% CO2/95% air.
Cells seeded in 96-well flat-bottom microplates with 100 μL medium per well (initial densities 10^4 cells per well) were exposed for 48 h to serial dilutions (100, 75, 50, 25, 10 and 1 µg/mL) of the tested compounds in DMSO (<1% final concentration). Cell viability was analyzed by the MTT colorimetric assay method, and the purple-colored formazan precipitate was dissolved with 100 μL of DMSO [23].
as §2

[3] = tested on: intracellular amastigotes of L. infantum; experiment: Infection index of DH82 macrophages infected with L. infantum (intracellular amastigotes); assay type: cell-based, Leishmania infantum; conditions: for nº Amastigotes/Infected Cell / % Infected Cells / Infection Index: DH82 macrophages, 48 h
Procedure: as §1
Canine DH82 (ATCC®-CRL-10389TM) macrophages were maintained in Dulbecco’s modified Eagle’s medium (DMEM) (Thermo Fisher Scientific, Waltham, MA, USA) supplemented with 10% heat-inactivated FBS (Thermo Fisher Scientific, Waltham, MA, USA), and Pen-Strep at 37 °C in 5% CO2.
DH82 cells (5 × 10^4 per well) were seeded in LabTek culture chamber slides (Thermo Scientific, Nunc™, Roskilde, Denmark) and incubated overnight at 37 °C and 5% CO2. On the following day, macrophages were infected with L. infantum stationary phase-promastigotes at a ratio of 5:1 parasites/macrophage and after 4 h of incubation at 37 °C, a time point that reflects initial infection, extracellular promastigotes were removed by washing. Germacrone was added at varying concentrations (10, 50 and 100 μg/mL) and macrophages were incubated in fresh medium for 48 h at 37 °C and 5% CO2. After Giemsa staining, cells were mounted with Vitro-Clud (Deltalab SLU, Barcelona, Spain), and 400 macrophages were counted in duplicate in a microscope Olympus BX41 (Olympus Corporation, Tokyo, Japan). The percentage of infected macrophages and the mean of the number of amastigotes per infected macrophage (defined as the intensity of infection) were evaluated. The infection index was calculated by multiplication of both parameters to account for the overall parasite load.

## CC(C)=C1C/C=C(\C)CC/C=C(\C)CC1=O [Compound 2, germacrone]
[1]
  IC50: 37.5 µg/mL (≈ 172 µM)
T. gallinae trophozoites
  IC50: 45.8 µg/mL (≈ 210 µM)
[2]
  CC50 at 48 h: ~100 µg/mL (≈ 458 µM)
[3]; 10 µg/mL
  nº Amastigotes/Infected Cell: 2.4 ± 1.1
[3]; 10 µg/mL, control of infection 42.8, listed as Germacrone (2)
  % Infected Cells: 25.9 ± 8.3 %
[3]; 10 µg/mL, control of infection 42.8, listed as germacrone (2)
  % Infected Cells: 25.9%
[3]; 10 µg/mL, control of infection 152.1, listed as Germacrone (2)
  Infection Index: 61.0 ± 9.4
[3]; 10 µg/mL, control of infection 152.1, listed as germacrone (2)
  Infection Index: 61.0
[3]; 10 µg/mL, from 152.1 (control) to 61.0
  reduction of the infection index: more than 50%
[3]; 50 µg/mL
  % Infected Cells: dead cells
  Infection Index: dead cells
  nº Amastigotes/Infected Cell: dead cells
[3]; 100 µg/mL
  % Infected Cells: dead cells
  Infection Index: dead cells
  nº Amastigotes/Infected Cell: dead cells
